Assay [1] deals with HXBc2-YU2 Chimeras (CCR5-tropic). The assay is described as follows: Viral infection assay, HXBc2-YU2 chimeras (CCR5-tropic). In kind it is cell-based, HIV-1. As to the method:
Production of recombinant HIV-1 expressing luciferase. […] After 48 hours, the supernatant was collected, buffered with 50 mM Hepes pH 7.4 (final concentration) and centrifuged for 5 minutes at 750×g and 4° C. The virus-containing supernatant was used directly or frozen at −80° C.
Viral infection assay. Each test compound was serially diluted in DMSO in a 96-well B&W isoplate (PerkinElmer, Boston, Mass.) using an HP D300 Digital Dispenser, to a final volume of 450 nl. DMSO was used as a control. Viruses pseudotyped with a specific Env were added to each well and incubated briefly at room temperature. Cf2Th-CD4/CCR5 cells were detached with StemPro Accutase Cell Dissociation Reagent (Invitrogen, cat #A11105-01), washed once, and 5000 cells were added to each well. […] Following incubation, the medium was aspirated and cells were lysed with 30 μl of Passive Lysis Buffer (Promega, cat #E1941). The activity of the firefly luciferase, which was used as a reporter protein in the system, was measured with a Centro LB 960 luminometer (Berthold Technologies, Oak Ridge, Tenn.). One hundred microliters of assay buffer (15 mM MgSO4, 15 mM KH2PO4/K2HPO4 pH 7.8, 1 mM ATP and 1 mM DTT) was injected to each well, followed by a 50 μl injection of 1 mM Dluciferin potassium salt (BD Pharmingen, San Jose, Calif.); luminescence was measured for 2 sec. […]

A further assay relates to HIV-1JR-FL. Kind of assay: Infection of human PBMC by HIV-1JR-FL. In kind it is cell-based. The conditions noted are these: HIV-1JR-FL infection of human PBMC. As to the method: Peripheral blood mononuclear cells (PBMC). Human blood was purchased from Research Blood Components, who obtained a consent firm from each donor, according to the American Association of Blood Banks guidelines, PBMC were isolated from the whole blood using a Ficoll-Paque gradient (Ficoll-Paque PLUS, Amersham Biosciences) and activated at concentration of 10^6 live cells/ml for 3 days in RPMI-PBMC medium (RPMI-1640 supplemented with 20% FBS, 10% IL-2 (Hemagen, Columbia, Md.), 100 μg/ml primocin (InvivoGen, San Diego, Calif.)) with 4 μg/ml phytohemagglutinin (Sigma-Aldrich, St. Louis, Mo.). In some cases, cells were frozen, thawed and activated prior to the assay.
Viral infection assay. Each test compound was serially diluted in DMSO in a 96-well B&W isoplate (PerkinElmer, Boston, Mass.) using an HP D300 Digital Dispenser, to a final volume of 450 nl. DMSO was used as a control. […] The activity of the firefly luciferase, which was used as a reporter protein in the system, was measured with a Centro LB 960 luminometer (Berthold Technologies, Oak Ridge, Tenn.). One hundred microliters of assay buffer (15 mM MgSO4, 15 mM KH2PO4/K2HPO4 pH 7.8, 1 mM ATP and 1 mM DTT) was injected to each well, followed by a 50 μl injection of 1 mM Dluciferin potassium salt (BD Pharmingen, San Jose, Calif.); luminescence was measured for 2 sec. […]

For another assay, the system named is HIV-1JR-FL gp120. The assay is described as follows: ELISA, binding of monoclonal antibodies to gp120 in presence of compound. The conditions noted are these: preincubation of gp120 with 18A. How it is done: Enzyme-linked immunosorbent assay (ELISA). […] Wells were blocked with blocking buffer (5% nonfat dry milk (Bio-Rad) in PBS) for 2 hours and then washed twice with PBS. Between 0.25 and 0.5 μg of purified HIV-1JR-FL gp120 in blocking buffer was added to each well; the plate was incubated for 60 minutes and washed thrice with PBS. […] The plate was incubated for a further 30 minutes and washed thrice with 0.05% Tween in PBS and thrice with PBS. […] The plate was incubated for 30 minutes, washed three times with 0.05% Tween in PBS and three times with PBS, as before, and 80 μl of SuperSignal chemiluminescent substrate (Pierce) was added to each well. The relative light units in each well were measured for 2 sec with a Centro LB 960 luminometer (Berthold Technologies). All procedures were performed at room temperature. Cellbased ELISA was performed.

Turning to `O=C(N/N=C/c1ccc(O)cc1)Nc1cccc2nsnc12` [Compound 18A], the values for the IC50 (in assay [1] (HXBc2 (YU2 V3) chimera); in assay [1] (HXBc2 (YU2 V123) chimera); in the assay on HIV-1JR-FL) were 20.2 ± 2.2 µM, 12.5 ± 1.6 µM and 0.4 µM, respectively. Also, the “binding of E51, 17b and 412d (CD4i) antibodies to gp120” value in the assay with HIV-1JR-FL gp120 is reported as “modest but reproducible decrease”. For the same compound, the “binding of most monoclonal antibodies to gp120” value in the assay on HIV-1JR-FL gp120 was “not affected”.

The IC50 is the concentration that inhibits the measured activity by half.
